Source: US3989836A, “Method for treating cardiovascular circulatory insufficiencies and hypotonia with 2-hydroxyphenyl-1-oxa-4-azaspiroalkane derivatives” (Warner-Lambert Company, priority 1973, dated 1976)
Read-outs that look alike come from different tables or passages of the source.

Experiments:
Type in all cases: in vivo
[1] = test system: average blood pressure; test: Sympathomimetic action: increase of the average blood pressure in % of initial value (awake dogs); conditions: for increase of the average blood pressure: i.g. up to 20 mg/kg
Procedure: Ii. sympathomimetic action was determined by measurement of the arterial and venous blood pressure using Statham transducers. The measured values were recorded by means of a direct recording instrument. In the case of intragastric administration, the substances were administered in the form of an aqueous solution by means of a stomach probe. Quiet and compatible dogs were trained to lie, without sedation, for a few hours on an operating board. Under local anesthesia, a catheter was introduced into the arteria femoralis. A measurement of arterial blood pressure was then carried out using the catheter and a Statham transducer.

[2] = test system: average blood pressure; test: Sympathomimetic action: increase of the average blood pressure by 25% over the initial value (narcotised dogs); conditions: for ED (25% increase): Canis lupus familiaris, read-out: dose for increase of the average blood pressure by 25% over the initial value
Procedure: Ii. sympathomimetic action was determined by measurement of the arterial and venous blood pressure using Statham transducers. The measured values were recorded by means of a direct recording instrument. As experimental animals, adult dogs of both sexes, were used; these had been narcotised with pentobarbital. During the experiment, the animals were kept at their specific body temperature by means of rectum-controlledinfra-red lamps. The compounds tested were injected, in the form of an isotonic solution, into the side branch of the vena femoralis. In the case of intraduodenal administration, the animals were laparotomised, and a cannula was fixed into the small intestine so that the substance, in the form of an aqueous solution, could be introduced directly into the intestine. Furthermore, the pylorus was ligatured in order to prevent regurgitation of the substance into the stomach. In the case of intragastric administration, the substances were administered in the form of an aqueous solution by means of a stomach probe.

[3] = Toxicity on mice (LD50 i.g., largest dose i.v. at which all animals survive); conditions: for LD50: mouse, in vivo, po; for LD50 i.g.: mice, footnote: not determinable because of insufficient resorption, no dosage-dependent death of the animals
Procedure: I. toxicity was determined on mice in the usual manner; the test and comparison substances being administered in aqueous solution by means of a stomach probe.

[4] = as above

| Compound | duration of increase of the average blood pressure ([1]; i.g. 2 mg/kg) | increase of the average blood pressure in % of initial value ([1]; i.g. 2 mg/kg) [%] | increase of the average blood pressure in % of initial value ([1]; i.v. 0.05 mg/kg) | ED (25% increase) ([2]; po, i.g.) [mg/kg] | duration of increase of the average blood pressure by 25% over the initial value ([2]; i.g. 2.0 mg/kg) | LD50 [3] [mg/kg] | largest dose i.v. at which all animals survive [4] [mg/kg] | increase of the average blood pressure [1] | ED (25% increase) ([2]; intraduodenal, i.d.) [mg/kg] | LD50 i.g. [3] | duration of increase of the average blood pressure ([1]; i.g. 4 mg/kg) | increase of the average blood pressure in % of initial value ([1]; i.g. 4 mg/kg) [%] | duration of increase of the average blood pressure by 25% over the initial value ([2]; i.d. 2.0 mg/kg) | duration of increase of the average blood pressure ([1]; i.g. 16 mg/kg) | increase of the average blood pressure in % of initial value ([1]; i.g. 16 mg/kg) [%] | increase of the average blood pressure in % of initial value ([1]; i.v. 1 mg/kg) | duration of increase of the average blood pressure by 25% over the initial value ([2]; i.g. 4.0-16.0 mg/kg) |
| --- | --- | --- | --- | --- | --- | --- | --- | --- | --- | --- | --- | --- | --- | --- | --- | --- | --- |
| Oc1cccc(C2CNC3(CCCCCC3)O2)c1 (stereo not shown) [B, 2-(3'-hydroxyphenyl)-1-oxa-4-azaspiro[4,6]undecane] | 70 ' | 35 | 40-70% | 2 | > 60 ' | ~400 | 3.3 | – | – | – | – | – | – | – | – | – | – |
| NCC(O)c1cccc(O)c1 (stereo not shown) [D, 1-(3'-hyroxyphenyl)-2-aminoethanol, reference compound] | – | – | 50-70% | – | – | – | 3.3 | without effect | > 20 | not determinable | – | – | – | – | – | – | – |
| Oc1cccc(C2CNC3(CCCCC3)O2)c1 (stereo not shown) [A, 2-(3'-hydroxyphenyl)-1-oxa-4-azaspiro[4,5]decane] | – | – | 50-80% | – | – | > 400 | 3.3 | – | 2 | – | > 60 ' | 40 | > 50 ' | – | – | – | – |
| CCNCC(O)c1cccc(O)c1 (stereo not shown) [E, 1-(3'-hydroxyphenyl)-2-ethylaminoethanol, reference compound] | – | – | 25% | – | – | – | 7.25 | without effect | > 20 | not determinable | – | – | – | – | – | – | – |
| CC1=CC2(CC(C)(C)C1)NCC(c1cccc(O)c1)O2 (stereo not shown) [C, 7,9,9-trimethyl-2-(3'-hydroxyphenyl)-1-oxa-4-azaspiro-[4,5]dec-6-ene] | – | – | – | 4 to 16 | – | ~1200 | 20.7 | – | – | – | – | – | – | 34 ' | 50 | 30-60% | 60 ' |
